Experimental data as given in US20130053310A1 (NOVO NORDISK A/S, priority 2010, published 2013).

What was measured:
[1] = Assay (II) ThT fibrillation assay for physical stability; assay type: physicochemical; details: ThT fibrillation assay, pH 4.0, 250 μM, 10 mM glycylglycine, 45 hours at 37° C., shaking 960 rpm
Source text: This has traditionally been measured by visual inspection of the sample. However, that kind of measurement is very subjective and depending on the observer. Therefore, the application of a small molecule indicator probe is much more advantageous.
Here, F is the ThT fluorescence at the time t. The constant t0 is the time needed to reach 50% of maximum fluorescence.
Few of those intermediates nucleate to form a template onto which further intermediates may assembly and the fibrillation proceeds. The lag-time corresponds to the interval in which the critical mass of nucleus is built up and the apparent rate constant is the rate with which the fibril itself is formed.
Samples were prepared freshly before each assay. […] The pH of the sample was adjusted to the desired value using appropriate amounts of concentrated NaOH and HCl. Thioflavin T was added to the samples from a stock solution in H2O to a final concentration of 1 μM.
The plate was sealed with Scotch Pad (Qiagen).
Each run was initiated by incubating the plate at the assay temperature for 10 min. The plate was measured every 20 minutes for a desired period of time. Between each measurement, the plate was shaken and heated as described.
The supernatant was filtered through a 0.22 μm filter and an aliquot was transferred to a HPLC vial.
The measurement points were saved in Microsoft Excel format for further processing and curve drawing and fitting was performed using GraphPad Prism.
The data set may be fitted to Eq. (1).

glucagon receptor = target: T1, glucagon receptor (Homo sapiens, UniProt P47871); assay: Assay (I) Glucagon activity: cAMP biosensor (ACTOne) FLIPR assay in HEK-293 cells with cloned glucagon receptor; assay type: cell-based
T1 construct: expressed in transfected cells
Method: The cells (14000 per well) were incubated (37° C., 5% CO2) overnight in 384-well plates. Next day the cells were loaded with a calcium responsive dye that only distributed into the cytoplasm. Probenecid, an inhibitor of the organic anion transporter, was added to prevent the dye from leaving the cell. A PDE inhibitor was added to prevent formatted cAMP from being degraded. […] End point data were collected after 6 minutes. An increase in intracellular cAMP was proportional to an increased in calcium concentrations in the cytoplasm. When calcium was bound the dry a fluorescence signal was generated. EC50-values were calculated in Prism5.

T1 sequence (P47871 26-477): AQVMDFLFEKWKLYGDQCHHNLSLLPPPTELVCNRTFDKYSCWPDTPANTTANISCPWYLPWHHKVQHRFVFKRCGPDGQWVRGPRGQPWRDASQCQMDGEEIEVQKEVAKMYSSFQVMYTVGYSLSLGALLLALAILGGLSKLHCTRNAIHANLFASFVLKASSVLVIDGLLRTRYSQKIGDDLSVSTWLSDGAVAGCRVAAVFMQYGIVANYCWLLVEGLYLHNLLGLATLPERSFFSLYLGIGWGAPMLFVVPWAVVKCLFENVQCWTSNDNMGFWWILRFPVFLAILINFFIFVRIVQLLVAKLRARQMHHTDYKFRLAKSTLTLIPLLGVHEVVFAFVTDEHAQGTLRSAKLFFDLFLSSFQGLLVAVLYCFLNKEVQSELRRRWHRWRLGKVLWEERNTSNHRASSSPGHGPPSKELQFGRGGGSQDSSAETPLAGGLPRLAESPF

`CC(C)C[C@H](NC(=O)[C@H](Cc1ccc(O)cc1)NC(=O)[C@H](CCCCN)NC(=O)[C@H](CO)NC(=O)[C@H](Cc1ccc(O)cc1)NC(=O)[C@H](CC(=O)O)NC(=O)[C@H](CO)NC(=O)[C@@H](NC(=O)[C@H](Cc1ccccc1)NC(=O)[C@@H](NC(=O)CNC(=O)[C@H](CCC(N)=O)NC(=O)[C@H](CO)NC(=O)[C@@H](N)Cc1c[nH]cn1)[C@@H](C)O)[C@@H](C)O)C(=O)N[C@@H](CC(=O)O)C(=O)N[C@@H](CO)C(=O)N[C@@H](CCCNC(=N)N)C(=O)N[C@@H](CCCNC(=N)N)C(=O)N[C@@H](C)C(=O)N[C@@H](CCC(N)=O)C(=O)N[C@@H](CC(=O)O)C(=O)N[C@@H](Cc1ccccc1)C(=O)N[C@H](C(=O)N[C@@H](CCC(N)=O)C(=O)N[C@@H](CCCNC(=N)N)C(=O)N[C@@H](CC(C)C)C(=O)N[C@@H](CC(C)C)C(=O)N[C@@H](CCC(=O)O)C(=O)N[C@H](C(=O)O)[C@@H](C)O)C(C)C` [Example 11, [Arg^25, Leu^27, Glu^28]-Glucagon] showed an Assay (II) (pH 4.0) Lag time (hours) [1] greater than 45 hours and an EC50 (glucagon receptor) of 0.037 nM.
